Measurements reported in PubChem BioAssay (NCI).
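Each compound was tested at five concentrations against cells in 96-well plates for 48 hours. The concentration for full growth arrest is given as TGI.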

Assays:
Test in all cases: NCI-60 cell line screen, 48 h
CAKI-1 renal = tested on: CAKI-1 renal
COLO 205 colon = tested on: COLO 205 colon
HOP-92 NSCLC = tested on: HOP-92 NSCLC
KM12 colon = tested on: KM12 colon
M14 melanoma = tested on: M14 melanoma
NCI/ADR-RES ovarian = tested on: NCI/ADR-RES ovarian
SF-268 CNS = tested on: SF-268 CNS
SK-MEL-28 melanoma = tested on: SK-MEL-28 melanoma
SK-MEL-5 melanoma = tested on: SK-MEL-5 melanoma
SN12C renal = tested on: SN12C renal
UACC-257 melanoma = tested on: UACC-257 melanoma
BT-549 breast = tested on: BT-549 breast

Compound	TGI (CAKI-1 renal) [µM]	TGI (COLO 205 colon) [µM]	TGI (HOP-92 NSCLC) [µM]	TGI (KM12 colon) [µM]	TGI (M14 melanoma) [µM]	TGI (NCI/ADR-RES ovarian) [µM]	TGI (SF-268 CNS) [µM]	TGI (SK-MEL-28 melanoma) [µM]	TGI (SK-MEL-5 melanoma) [µM]	TGI (SN12C renal) [µM]	TGI (UACC-257 melanoma) [µM]	TGI (BT-549 breast) [µM]
O=C(CC(C(=O)c1ccoc1)c1ccco1)c1ccco1 (configuration not stated)	> 100	> 100	> 100	> 100	> 100	> 100	> 100	> 100	> 100	> 100	> 100	
CC1(C)CC(=O)c2c(nc3ccc4ccccc4c3c2-c2ccc(NC(=O)CCC(=O)Nc3ccc(-c4c5c(nc6ccc7ccccc7c46)CC(C)(C)CC5=O)cc3)cc2)C1	> 100	> 100		> 100	> 100	> 100	> 100	> 100	> 100	> 100	> 100	
COc1cc2c(c(OC)c1OC)-c1ccc(SC)cc1[C@H](OC(=O)c1ccccc1)CC2	> 100	0.446	> 100	> 100			> 100	> 100	1.21	> 78.2	> 100	> 100
COc1ccccc1N1CCN(Cn2c(=O)oc3cccnc32)CC1	> 100		> 100		> 100	> 100	> 100	> 100	> 100		> 100	
CC(=O)NC1=C(C)C(=O)c2c(nc3n2CCC3O)C1=N (configuration not stated)	27.7	33.4	15.3	34.3			22.3	31	26.2	19	13.2	
CNC(=O)c1[nH]cnc1/N=N/N(C)N	> 100	> 100		> 100	> 100	> 100	> 100	> 100	> 100	> 100	> 100	> 100
CCC1C(c2cc(OC)c(OC)c(OC)c2)c2cc3c(cc2OC1N1CCOCC1)OCO3 (configuration not stated)		22.4	41		23.7	> 100	41.5		6.38	28.6	55.5	22
CNC1=CC(=O)C2=C(C1=O)[C@H]1CC[C@]3(C)C(=O)CC[C@H]3[C@@H]1CC2	33.6	33.3	25.7	23.6	28	42.1		34.4	27.6	> 52.7	28.8	36
COc1cc(COC(=O)N2CCC2C(=O)O)c([N+](=O)[O-])cc1OC (configuration not stated)		> 100	> 100	> 100	> 100	> 100	> 100	> 100	> 100	> 100	> 100	> 100
NC(=O)N1N=C2c3ccccc3SC[C@H]2[C@@H]1c1ccccc1		43.4					> 100	52.1	21.8	> 100	54	
Cc1cccc(NC(=S)N=Nc2c(O)[nH]c3ccccc23)c1	> 100	> 100	> 100	> 100	> 100	85.9	58.7	> 100	> 100	> 100	> 100	
